Source: ChEMBL document CHEMBL1136238, “Synthesis and PDF inhibitory activities of novel benzothiazolylidenehydroxamic acid derivatives” (Bioorg Med Chem Lett, 2003)
Values after ≈ are worked out from the molar mass of the structure shown.

Legend:
Pseudomonas aeruginosa = assay: In vitro minimum inhibitory concentration required against Pseudomonas aeruginosa ATCC 9027; assay type: functional
[1] = molecular target: Peptide deformylase (Escherichia coli) (UniProt P0A6K3); assay: In vitro inhibitory concentration required against peptide deformylase (PDF)
Escherichia coli = assay: In vitro minimum inhibitory concentration required against Escherichia coli ATCC 25922; assay type: functional
Staphylococcus aureus = assay: In vitro minimum inhibitory concentration required against Staphylococcus aureus ATCC 10390; assay type: functional

Sequence of Peptide deformylase (Escherichia coli) (P0A6K3 whole entry, looked up): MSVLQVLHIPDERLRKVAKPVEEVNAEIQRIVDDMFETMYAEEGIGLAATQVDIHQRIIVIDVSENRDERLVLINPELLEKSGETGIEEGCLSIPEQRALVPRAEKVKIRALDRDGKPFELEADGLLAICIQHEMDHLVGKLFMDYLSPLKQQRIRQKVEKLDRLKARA

| Structure (SMILES) | MIC (Pseudomonas aeruginosa) [µg/mL] | IC50 [1] [µM] | MIC (Escherichia coli) [µg/mL] | MIC (Staphylococcus aureus) [µg/mL] |
| --- | --- | --- | --- | --- |
| CCCN1/C(=C/C(=O)NO)Sc2ccccc21 | 100 (≈ 399 µM) | 8.39 | > 100 | 10 (≈ 39.9 µM) |
| CCCCC[C@H](CC(=O)NO)C(=O)N[C@H](C(=O)N1CCC[C@H]1CO)C(C)C [ACTINONIN] | 100 (≈ 259 µM) |  | 50 (≈ 130 µM) | 3 (≈ 7.78 µM) |
| CCN1/C(=C/C(=O)NO)Sc2ccccc21 | > 100 | > 100 | > 100 | > 100 |
| CCCCN1/C(=C/C(=O)NO)Sc2ccccc21 | 100 (≈ 378 µM) |  | > 100 |  |

Second part, the compound after the results:

| MIC (Pseudomonas aeruginosa) [µg/mL] | IC50 [1] [µM] | MIC (Escherichia coli) [µg/mL] | MIC (Staphylococcus aureus) [µg/mL] | Structure (SMILES) |
| --- | --- | --- | --- | --- |
| > 100 | > 100 | > 100 | > 100 | CCCCN1/C(=C/C(=O)O)Sc2ccccc21 |
| 100 (≈ 359 µM) | 9.91 | > 100 | 100 (≈ 359 µM) | CCCCCN1/C(=C/C(=O)NO)Sc2ccccc21 |
| > 100 | > 100 | > 100 | > 100 | CCCCN1/C(=C/C(=O)NO)S(=O)(=O)c2ccccc21 |
